In US20260138976A1 (Hoffmann-La Roche Inc., priority 2022, published 2026) one finds IC50 data, which are given here for 15 molecules.

The target in experiment [1] is T1, DGKα (hDGKalpha(1-735)-N-His) (Homo sapiens, UniProt P23743).
T1 construct: hDGKalpha(1-735)-N-His; His (N); made in house; host or cells: Sf21 insect cells (baculovirus)
Kind of experiment: In vitro DGK inhibition assay, DGKalpha ADP Glo (in house). The format is biochemical. To be noted: 4 nM DGKα, 25 μM ATP, 125 uM DLG in liposomes, 1 hour reaction. The protocol:
(§1) DGKα and ζ kinases use ATP to phosphorylate the substrate 1,2-dilauroyl-sn-glycerol (DLG, incorporated in the liposomes). ATP is converted to ADP as a result of this enzymatic reaction. After the kinase reaction, an ATP-depletion reagent is added to terminate the kinase reaction and deplete any remaining ATP, leaving only ADP. Second, a detection reagent is added to simultaneously convert ADP to ATP and allow the newly synthesized ATP to be converted to light using a coupled luciferase/luciferin reaction.
(§2) Full length DGKα and ζ were expressed in Sf21 insect cells by infecting the cells with the baculovirus stock at MOI of 2. Purification of both enzymes was performed as previously described by Takahashi et al., PeerJ, 2018 (Takahashi, D.; Sakane, F. Expression and purification of human diacylglycerol 5 kinase alpha from baculovirus-infected insect cells for structural studies. PeerJ2018, 6, No. e5449).
(§3) A concentrated liposome solution was prepared in assay buffer without DTT and BSA: 2 mM of DLG in 21 mM of total liposome (2 mM DLG/8 mM PS/11 mM PC). The reaction mixtures contain the assay buffer with a final DLG concentration of 125 uM ATP concentrations of 25 μM (for DGKA assay) or 50 μM (for DGKZ assay). The reactions were started by addition of DGK α and ζ kinases at 4 nM and 2 nM final concentrations, respectively. After 1 hour reaction, the amount of ADP formed was detected with the ADP-Glo kinase assay (Promega) according to the manufacturer instructions. Compounds were added in 11-points dose response, starting at […], 1:3 dilutions, with a final DMSO concentration of 2%. The multidrop combi was used as a liquid handler and luminescence was read with 0.5 s by the envision reader (PE).
(In general: In ADP-Glo the light output rises with the ADP produced.)

For experiment [2], the target named is T2, DGKζ (hDGKzeta(1-928)-N-His) (Homo sapiens, UniProt Q13574).
T2 construct: hDGKzeta(1-928)-N-His; His (N); made in house; host or cells: Sf21 insect cells (baculovirus)
T2 sequence (Q13574 whole entry): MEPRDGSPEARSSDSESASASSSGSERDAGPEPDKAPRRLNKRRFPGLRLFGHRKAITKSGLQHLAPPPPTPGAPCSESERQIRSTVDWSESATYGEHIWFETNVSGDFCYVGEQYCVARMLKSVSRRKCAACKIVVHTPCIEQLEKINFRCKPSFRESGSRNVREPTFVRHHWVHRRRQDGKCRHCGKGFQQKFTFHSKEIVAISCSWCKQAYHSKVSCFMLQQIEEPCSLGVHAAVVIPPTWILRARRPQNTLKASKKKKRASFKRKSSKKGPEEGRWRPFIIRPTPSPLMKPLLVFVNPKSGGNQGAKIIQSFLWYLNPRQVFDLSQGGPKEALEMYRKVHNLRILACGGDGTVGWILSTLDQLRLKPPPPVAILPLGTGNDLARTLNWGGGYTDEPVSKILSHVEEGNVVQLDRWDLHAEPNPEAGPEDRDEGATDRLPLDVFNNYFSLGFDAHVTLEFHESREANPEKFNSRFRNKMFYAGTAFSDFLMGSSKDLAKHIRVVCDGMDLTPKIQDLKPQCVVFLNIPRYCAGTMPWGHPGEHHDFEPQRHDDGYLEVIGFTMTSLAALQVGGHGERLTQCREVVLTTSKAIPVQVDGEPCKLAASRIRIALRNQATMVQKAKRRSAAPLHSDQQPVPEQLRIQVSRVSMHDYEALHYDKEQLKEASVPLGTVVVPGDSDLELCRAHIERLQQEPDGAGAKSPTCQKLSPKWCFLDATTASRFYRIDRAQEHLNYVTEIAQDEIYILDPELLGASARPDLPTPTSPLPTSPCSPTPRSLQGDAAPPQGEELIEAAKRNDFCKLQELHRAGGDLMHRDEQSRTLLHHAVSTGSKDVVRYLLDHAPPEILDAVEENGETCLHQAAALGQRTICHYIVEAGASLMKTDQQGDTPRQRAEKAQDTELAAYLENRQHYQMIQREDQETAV
Description: In vitro DGK inhibition assay, DGKzeta ADP Glo (in house). The format is biochemical. The settings on record: 2 nM DGKζ, 50 μM ATP, 125 uM DLG in liposomes, 1 hour reaction. The protocol: as §1, §2, §3

In general, IC50 refers to the concentration at which inhibition is half-maximal. A high value points to weaker potency in that assay.

T1 sequence (P23743 whole entry): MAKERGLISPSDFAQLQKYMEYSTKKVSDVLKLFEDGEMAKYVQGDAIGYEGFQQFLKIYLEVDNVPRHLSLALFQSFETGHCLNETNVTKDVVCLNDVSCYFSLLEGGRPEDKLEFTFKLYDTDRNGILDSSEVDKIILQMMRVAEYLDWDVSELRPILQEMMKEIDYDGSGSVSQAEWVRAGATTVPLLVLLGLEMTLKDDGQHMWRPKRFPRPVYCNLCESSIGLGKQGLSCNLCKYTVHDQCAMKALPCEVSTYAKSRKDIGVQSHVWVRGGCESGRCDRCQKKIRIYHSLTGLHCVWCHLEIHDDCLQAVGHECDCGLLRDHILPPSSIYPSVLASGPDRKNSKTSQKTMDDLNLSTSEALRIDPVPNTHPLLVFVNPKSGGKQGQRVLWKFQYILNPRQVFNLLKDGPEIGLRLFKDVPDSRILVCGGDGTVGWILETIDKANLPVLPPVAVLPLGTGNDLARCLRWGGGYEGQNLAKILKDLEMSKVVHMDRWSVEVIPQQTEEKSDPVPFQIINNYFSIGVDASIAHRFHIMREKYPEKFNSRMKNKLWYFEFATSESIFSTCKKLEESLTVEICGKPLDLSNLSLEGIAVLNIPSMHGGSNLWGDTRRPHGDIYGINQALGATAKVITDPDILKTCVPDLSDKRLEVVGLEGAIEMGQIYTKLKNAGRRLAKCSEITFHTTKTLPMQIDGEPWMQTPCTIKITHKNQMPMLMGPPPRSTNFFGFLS

In the case of `CC1(Nc2nnc(-c3cc4c(cc3F)S(=O)(=O)C[C@H](N)C(=O)N4Cc3ccc(-c4noc(C(F)(F)F)n4)cc3)o2)CC(F)(F)C1` [Example 3, (3R)-3-amino-7-[5-[(3,3-difluoro-1-methyl-cyclobutyl)amino]-1,3,4-oxadiazol-2-yl]-8-fluoro-1,1-dioxo-5-[[4-[5-(trifluoromethyl)-1,2,4-oxadiazol-3-yl]phenyl]methyl]-2,3-dihydro-1λ^6,5-benzothiazepin-4-one], the 50% inhibitory concentration (IC50) in experiment [1] was 10.3 µM; in experiment [2], 1280 nM.
In the same order, the values of `N[C@H]1CS(=O)(=O)c2cc(F)c(-c3nnc(N4CCOC5(CC5)C4)o3)cc2N(Cc2ccc(-c3noc(C(F)(F)F)n3)cc2)C1=O` [Example 4, (3R)-3-amino-8-fluoro-7-[5-(4-oxa-7-azaspiro[2.5]octan-7-yl)-1,3,4-oxadiazol-2-yl]-1,1-dioxo-5-[[4-[5-(trifluoromethyl)-1,2,4-oxadiazol-3-yl]phenyl]methyl]-2,3-dihydro-1λ^6,5-benzothiazepin-4-one] are 3.41 µM and 127 nM.
In the same order, the values of `N[C@H]1CS(=O)(=O)c2cc(F)c(-c3nnc(N4CCC(F)(F)CC4)o3)cc2N(Cc2ccc(-c3noc(C(F)(F)F)n3)cc2)C1=O` [Example 5, (3R)-3-amino-7-[5-(4,4-difluoro-1-piperidyl)-1,3,4-oxadiazol-2-yl]-8-fluoro-1,1-dioxo-5-[[4-[5-(trifluoromethyl)-1,2,4-oxadiazol-3-yl]phenyl]methyl]-2,3-dihydro-1λ^6,5-benzothiazepin-4-one] are 0.635 µM and 68 nM.
For `COc1ccc(-c2ccc(CN3C(=O)[C@@H](N)CS(=O)(=O)c4cc(F)c(-c5noc(C6(N)COC6)n5)cc43)cc2)cc1` [Example 8, (3R)-3-amino-7-[5-(3-aminooxetan-3-yl)-1,2,4-oxadiazol-3-yl]-8-fluoro-5-[[4-(4-methoxyphenyl)phenyl]methyl]-1,1-dioxo-2,3-dihydro-1λ^6,5-benzothiazepin-4-one], in that order: 7.03 µM and 137 nM.
Regarding `N[C@H]1CS(=O)(=O)c2cc(F)c(-c3noc(C4(N)COC4)n3)cc2N(Cc2ccc(-c3noc(C(F)(F)F)n3)cc2)C1=O` [Example 9, (3R)-3-amino-7-[5-(3-aminooxetan-3-yl)-1,2,4-oxadiazol-3-yl]-8-fluoro-1,1-dioxo-5-[[4-[5-(trifluoromethyl)-1,2,4-oxadiazol-3-yl]phenyl]methyl]-2,3-dihydro-1λ^6,5-benzothiazepin-4-one], the IC50 stood at 3.29 µM in experiment [1] and 468 nM in experiment [2].
In the same order, the values of `N[C@H]1CS(=O)(=O)c2cc(F)c(-c3noc(C4(N)COC4)n3)cc2N(Cc2ccc(-c3ccc(C(F)(F)F)cn3)cc2)C1=O` [Example 10, (3R)-3-amino-7-[5-(3-aminooxetan-3-yl)-1,2,4-oxadiazol-3-yl]-8-fluoro-1,1-dioxo-5-[[4-[5-(trifluoromethyl)-2-pyridyl]phenyl]methyl]-2,3-dihydro-1λ^6,5-benzothiazepin-4-one] are 5.16 µM and 282 nM.
For `N[C@H]1CS(=O)(=O)c2cc(F)c(-c3noc(N4CCOC5(CC5)C4)n3)cc2N(Cc2ccc(-c3ccc(C(F)(F)F)cc3)nc2)C1=O` [Example 11, (3R)-3-amino-8-fluoro-7-[5-(4-oxa-7-azaspiro[2.5]octan-7-yl)-1,2,4-oxadiazol-3-yl]-1,1-dioxo-5-[[6-[4-(trifluoromethyl)phenyl]-3-pyridyl]methyl]-2,3-dihydro-1λ^6,5-benzothiazepin-4-one], in that order: over 6.25 µM and 690 nM.
For `N[C@H]1CS(=O)(=O)c2cc(F)c(-c3noc(N4CCOC(F)(F)C4)n3)cc2N(Cc2ccc(-c3noc(C(F)(F)F)n3)nc2)C1=O` [Example 12, (3R)-3-amino-7-[5-(2,2-difluoromorpholin-4-yl)-1,2,4-oxadiazol-3-yl]-8-fluoro-1,1-dioxo-5-[[6-[5-(trifluoromethyl)-1,2,4-oxadiazol-3-yl]-3-pyridyl]methyl]-2,3-dihydro-1λ^6,5-benzothiazepin-4-one], in that order: 3.04 µM and 169 nM.
As to `N[C@H]1CS(=O)(=O)c2cc(F)c(-c3noc(N4CCOC(F)(F)C4)n3)cc2N(Cc2ccc(-c3ccc(C(F)(F)F)cc3)nc2)C1=O` [Example 13, (3R)-3-amino-7-[5-(2,2-difluoromorpholin-4-yl)-1,2,4-oxadiazol-3-yl]-8-fluoro-1,1-dioxo-5-[[6-[4-(trifluoromethyl)phenyl]-3-pyridyl]methyl]-2,3-dihydro-1λ^6,5-benzothiazepin-4-one], the half-maximal inhibitory concentration (IC50) is over 62.5 µM in experiment [1] and 769 nM in experiment [2].
In the same order, the values of `N[C@H]1CS(=O)(=O)c2cc(F)c(-c3noc(N4CCOC5(CC5)C4)n3)cc2N(Cc2ccc(-c3noc(C(F)(F)F)n3)nc2)C1=O` [Example 14, (3R)-3-amino-8-fluoro-7-[5-(4-oxa-7-azaspiro[2.5]octan-7-yl)-1,2,4-oxadiazol-3-yl]-1,1-dioxo-5-[[6-[5-(trifluoromethyl)-1,2,4-oxadiazol-3-yl]-3-pyridyl]methyl]-2,3-dihydro-1λ^6,5-benzothiazepin-4-one] are 36.9 µM and 144 nM.
In the same order, the values of `N#CC1(c2nc(-c3cc4c(cc3F)S(=O)(=O)C[C@H](N)C(=O)N4Cc3ccc(-c4noc(C(F)(F)F)n4)cc3)no2)CC1` [Example 16, 1-[3-[(3R)-3-amino-8-fluoro-1,1,4-trioxo-5-[[4-[5-(trifluoromethyl)-1,2,4-oxadiazol-3-yl]phenyl]methyl]-2,3-dihydro-1λ^6,5-benzothiazepin-7-yl]-1,2,4-oxadiazol-5-yl]cyclopropanecarbonitrile] are 1.74 µM and 281 nM.
For the molecule `N#CC1(c2nc(-c3cc4c(cc3F)S(=O)(=O)C[C@H](N)C(=O)N4Cc3ccc(-c4ccc(C(F)(F)F)cn4)cc3)no2)CC1` [Example 17], the 50% inhibitory concentration (IC50) in experiment [1] is 3.21 µM; in experiment [2], 464 nM.
In the same order, the values of `CC(C)(C)c1nnc(-c2ccc(CN3C(=O)[C@@H](N)CS(=O)(=O)c4ccc(-c5nnc(C(C)(C)C)o5)cc43)cc2)o1` [Example 19, (3R)-3-amino-7-(5-tert-butyl-1,3,4-oxadiazol-2-yl)-5-[[4-(5-tert-butyl-1,3,4-oxadiazol-2-yl)phenyl]methyl]-1,1-dioxo-2,3-dihydro-1λ^6,5-benzothiazepin-4-one] are 18.2 µM and 783 nM.
With `Cc1cc(C)n(-c2ccc(CN3C(=O)[C@@H](N)CS(=O)(=O)c4ccc(-c5nnc(C(C)(C)C)o5)cc43)cc2)n1` [Example 22, (3R)-3-amino-7-(5-tert-butyl-1,3,4-oxadiazol-2-yl)-5-[[4-(3,5-dimethylpyrazol-1-yl)phenyl]methyl]-1,1-dioxo-2,3-dihydro-1λ^6,5-benzothiazepin-4-one], the 50% inhibitory concentration (IC50) in experiment [1] is 1.86 µM; in experiment [2], 1090 nM.
`CC(C)(C)C(N)c1nnc(-c2ccc3c(c2)N(Cc2ccc(-c4noc(C(F)(F)F)n4)cc2)C(=O)[C@@H](N)CS3(=O)=O)o1` (stereo partly drawn) [Example 34, (3R)-3-amino-7-[5-(1-amino-2,2-dimethyl-propyl)-1,3,4-oxadiazol-2-yl]-1,1-dioxo-5-[[4-[5-(trifluoromethyl)-1,2,4-oxadiazol-3-yl]phenyl]methyl]-2,3-dihydro-1λ^6,5-benzothiazepin-4-one]: the IC50 in experiment [1] amounted to 12.2 µM; in experiment [2], 1670 nM.
